Source: ChEMBL document CHEMBL3885861, “Open TG-GATES”

Species: Rattus norvegicus
Assay: Open TG-GATES - Regimen: Daily Repeat
Type: toxicity, organism-based, Sprague-Dawley
Set-up: regimen Daily Repeat, gender Male, age 6 weeks
Details: in vivo, po, 600 mg/kg, route gavage, dose level High; for APTT / Bas / Eos / Fbg / Hb / Ht / Lym / MCHC / MCV / Mono / PT / Plat / RBC / Ret / WBC / Neu: tissue Blood; for KIDNEY_L / KIDNEY_R / KIDNEY_TOTAL: tissue Kidney; for LIVER: tissue Liver; for ALP / ALT / AST / CRE / DBIL / GLC / IP / K / LDH / Na / PL / RALB / TBIL / TC / TG / TP / gamma-GTP / Ca: tissue Plasma

SMILES: O=C1NC(=O)C(c2ccccc2)(c2ccccc2)N1 [PHENYTOIN]
- APTT (72 h, time 3 day): 21.7 s
- Bas (72 h, time 3 day): 0%
- Eos (72 h, time 3 day): 1%
- Fbg (72 h, time 3 day): 282.8 mg/dL
- Hb (72 h, time 3 day): 13.4 g/dL
- Ht (72 h, time 3 day): 39.8%
- Lym (72 h, time 3 day): 77.6%
- MCHC (72 h, time 3 day): 33.8%
- MCV (72 h, time 3 day): 64.7 fL
- Mono (72 h, time 3 day): 2.4%
- PT (72 h, time 3 day): 15.7 s
- Plat (72 h, time 3 day): 124.6 x10_4/uL
- RBC (72 h, time 3 day): 617 x10_4/ul
- Ret (72 h, time 3 day): 6.3%
- WBC (72 h, time 3 day): 85 x10_2/uL
- KIDNEY_L (72 h, time 3 day): 0.9 g
- KIDNEY_R (72 h, time 3 day): 0.9 g
- KIDNEY_TOTAL (72 h, time 3 day): 1.9 g
- LIVER (72 h, time 3 day): 10.5 g
- ALP (72 h, time 3 day): 1803.2 IU/L
- ALT (72 h, time 3 day): 45 IU/L
- AST (72 h, time 3 day): 73.6 IU/L
- CRE (72 h, time 3 day): 0.1 mg/dL
- DBIL (72 h, time 3 day): 0.002 mg/dL
- GLC (72 h, time 3 day): 158 mg/dL
- IP (72 h, time 3 day): 7.3 mg/dL
- K (72 h, time 3 day): 4.4 meq/L
- LDH (72 h, time 3 day): 193.6 IU/L
- Na (72 h, time 3 day): 143.2 meq/L
- PL (72 h, time 3 day): 127.4 mg/dL
- RALB (72 h, time 3 day): 3 g/dL
- TBIL (72 h, time 3 day): 0.01 mg/dL
- TC (72 h, time 3 day): 67 mg/dL
- TG (72 h, time 3 day): 74.6 mg/dL
- TP (72 h, time 3 day): 5.7 g/dL
- gamma-GTP (72 h, time 3 day): 1.2 IU/L
- TERMINAL_BW ([…], time 7 day): 243.1 g
- TERMINAL_BW ([…], time 14 day): 290.1 g
- TERMINAL_BW ([…], time 28 day): 332.2 g
- APTT ([…], time 7 day): 23.9 s
- Bas ([…], time 7 day): 0%
- Eos ([…], time 7 day): 0.6%
- Fbg ([…], time 7 day): 311.5 mg/dL
- Hb ([…], time 7 day): 13.8 g/dL
- Ht ([…], time 7 day): 39.7%
- Lym ([…], time 7 day): 80.4%
- MCHC ([…], time 7 day): 34.7%
- MCV ([…], time 7 day): 62.1 fL
- Mono ([…], time 7 day): 2.2%
- Neu ([…], time 7 day): 15.6%
- PT ([…], time 7 day): 15.6 s
- Plat ([…], time 7 day): 125.6 x10_4/uL
- RBC ([…], time 7 day): 638.6 x10_4/ul
- Ret ([…], time 7 day): 4.6%
- WBC ([…], time 7 day): 101.9 x10_2/uL
- APTT ([…], time 14 day): 25.5 s
- Bas ([…], time 14 day): 0%
- Eos ([…], time 14 day): 0.8%
- Fbg ([…], time 14 day): 281.6 mg/dL
- Hb ([…], time 14 day): 14.4 g/dL
- Ht ([…], time 14 day): 42.7%
- Lym ([…], time 14 day): 81.6%
- MCHC ([…], time 14 day): 33.6%
- MCV ([…], time 14 day): 60.3 fL
- Mono ([…], time 14 day): 1.8%
- Neu ([…], time 14 day): 14.6%
- PT ([…], time 14 day): 16.3 s
- Plat ([…], time 14 day): 121.7 x10_4/uL
- RBC ([…], time 14 day): 709.6 x10_4/ul
- Ret ([…], time 14 day): 4.4%
- WBC ([…], time 14 day): 118.8 x10_2/uL
- APTT ([…], time 28 day): 25.5 s
- Bas ([…], time 28 day): 0%
- Eos ([…], time 28 day): 1%
- Fbg ([…], time 28 day): 299 mg/dL
- Hb ([…], time 28 day): 15.7 g/dL
- Ht ([…], time 28 day): 44.4%
- Lym ([…], time 28 day): 85.2%
- MCHC ([…], time 28 day): 35.4%
- MCV ([…], time 28 day): 56.8 fL
- Mono ([…], time 28 day): 1.4%
- Neu ([…], time 28 day): 11.6%
- PT ([…], time 28 day): 15.9 s
- Plat ([…], time 28 day): 105 x10_4/uL
- RBC ([…], time 28 day): 781.8 x10_4/ul
- Ret ([…], time 28 day): 2.5%
- WBC ([…], time 28 day): 89.2 x10_2/uL
- KIDNEY_L ([…], time 7 day): 1.1 g
- KIDNEY_R ([…], time 7 day): 1.1 g
- KIDNEY_TOTAL ([…], time 7 day): 2.2 g
- KIDNEY_L ([…], time 14 day): 1.2 g
- KIDNEY_R ([…], time 14 day): 1.2 g
- KIDNEY_TOTAL ([…], time 14 day): 2.3 g
- KIDNEY_L ([…], time 28 day): 1.3 g
- KIDNEY_R ([…], time 28 day): 1.3 g
- KIDNEY_TOTAL ([…], time 28 day): 2.6 g
- LIVER ([…], time 7 day): 13.6 g
- LIVER ([…], time 14 day): 13.6 g
- LIVER ([…], time 28 day): 13.8 g
- ALP ([…], time 7 day): 1547.2 IU/L
- ALT ([…], time 7 day): 39.4 IU/L
- AST ([…], time 7 day): 59.6 IU/L
- CRE ([…], time 7 day): 0.2 mg/dL
- DBIL ([…], time 7 day): 0 mg/dL
- GLC ([…], time 7 day): 167 mg/dL
- IP ([…], time 7 day): 6.8 mg/dL
- K ([…], time 7 day): 4.2 meq/L
- LDH ([…], time 7 day): 173 IU/L
- Na ([…], time 7 day): 142.2 meq/L
- PL ([…], time 7 day): 145.2 mg/dL
- RALB ([…], time 7 day): 3 g/dL
- TBIL ([…], time 7 day): 0.024 mg/dL
- TC ([…], time 7 day): 77.8 mg/dL
- TG ([…], time 7 day): 78.6 mg/dL
- TP ([…], time 7 day): 5.8 g/dL
- gamma-GTP ([…], time 7 day): 1 IU/L
- ALP ([…], time 14 day): 1535.6 IU/L
- ALT ([…], time 14 day): 43.6 IU/L
- AST ([…], time 14 day): 65.6 IU/L
- CRE ([…], time 14 day): 0.2 mg/dL
- Ca ([…], time 14 day): 10.2 mg/dL
- DBIL ([…], time 14 day): 0 mg/dL
- GLC ([…], time 14 day): 186 mg/dL
- IP ([…], time 14 day): 6.4 mg/dL
- K ([…], time 14 day): 4.1 meq/L
- LDH ([…], time 14 day): 157.2 IU/L
- Na ([…], time 14 day): 143 meq/L
- PL ([…], time 14 day): 137.8 mg/dL
- RALB ([…], time 14 day): 3 g/dL
- TBIL ([…], time 14 day): 0.004 mg/dL
- TC ([…], time 14 day): 69.4 mg/dL
- TG ([…], time 14 day): 99.4 mg/dL
- TP ([…], time 14 day): 5.7 g/dL
- gamma-GTP ([…], time 14 day): 1.6 IU/L
- ALP ([…], time 28 day): 1175.6 IU/L
- ALT ([…], time 28 day): 40.4 IU/L
- AST ([…], time 28 day): 62 IU/L
- CRE ([…], time 28 day): 0.2 mg/dL
- Ca ([…], time 28 day): 10 mg/dL
- DBIL ([…], time 28 day): 0 mg/dL
- GLC ([…], time 28 day): 183.2 mg/dL
- IP ([…], time 28 day): 5.4 mg/dL
- K ([…], time 28 day): 4 meq/L
- LDH ([…], time 28 day): 135.8 IU/L
- Na ([…], time 28 day): 143.4 meq/L
- PL ([…], time 28 day): 135.4 mg/dL
- RALB ([…], time 28 day): 3.1 g/dL
- TBIL ([…], time 28 day): 0.024 mg/dL
- TC ([…], time 28 day): 67.2 mg/dL
- TG ([…], time 28 day): 95.4 mg/dL
- TP ([…], time 28 day): 6.1 g/dL
- gamma-GTP ([…], time 28 day): 1.4 IU/L
